Results from patent publication US20100126386A1, “RADIATION-CURABLE COATING SUBSTANCES” (Basf Aktiengesellschaft, priority 2004, published 2010).

Assay: Testing of the NIR sensitizers in photoinitiator mixtures (exposure of thin coats with halogen lamp)
Details: 0.5% by weight NIR sensitizer and 1.5% by weight boronate salt X in the paint base materials
Method: The two aforementioned paint base materials were admixed with 0.5% by weight of each NIR sensitizer and 1.5% by weight of the boronate salt X^− and the mixtures were stirred intensively. Thin coats (coat thickness approximately 50 μm) were produced with the resulting mixtures between two glass plates, using spacer sheets. These coats were exposed using a 250 W halogen lamp (distance approximately 15 cm) for 1 minute.

For `CN1\C(=C/C=C/C=C/C=C/C2=[N+](C)c3ccc(Cl)cc3C2(C)C)C(C)(C)c2cc(Cl)ccc21` [Compound A7], the “dissolution of the NIR sensitizer in the paint base material” value (from here on “dissolution of the NIR sensitizer”) was “fully dissolved”.

For `CCN1/C(=C/C=C2\CCCC(/C=C/C3=[N+](CC)c4ccc(C(F)(F)F)cc4C3(C)C)=C2Cl)C(C)(C)c2cc(C(F)(F)F)ccc21` [Compound A11], the “dissolution of the NIR sensitizer” value was “fully dissolved”.

With `CCN1/C(=C/C=C2\CCCC(/C=C/C3=[N+](CC)c4ccc(C#N)cc4C3(C)C)=C2Cl)C(C)(C)c2cc(C#N)ccc21` [Compound A12] the “dissolution of the NIR sensitizer” value was “fully dissolved”.

With `CN1\C(=C/C=C/C=C/C=C/C2=[N+](C)c3ccc(Cl)cc3C2(C)C)C(C)(C)c2cc(Cl)ccc21` [Compound B7] the “dissolution of the NIR sensitizer” value was “not completely dissolved”.

For `CCN1/C(=C/C=C2\CCCC(/C=C/C3=[N+](CC)c4ccc(C(F)(F)F)cc4C3(C)C)=C2Cl)C(C)(C)c2cc(C(F)(F)F)ccc21` [Compound B11], the “dissolution of the NIR sensitizer” value was “not completely dissolved”.

For `CCN1/C(=C/C=C2\CCCC(/C=C/C3=[N+](CC)c4ccc(C#N)cc4C3(C)C)=C2Cl)C(C)(C)c2cc(C#N)ccc21` [Compound B12], the “dissolution of the NIR sensitizer” value was “not completely dissolved”.
